# Data as given in patent US20140315972A1, “RS)-2-(2-oxo-4-phenylpyrrolidin-1-yl)acetamide compound having modulatory activity with a commensurate effect, pharmaceutical substance (variants) and its application, composition (variants) thereof” (priority 2011, published 2014).
# Marks after values point to notes of the source that are not given here.
# Experiments:
# [1] = test system: cAMP; assay: cAMP level in blood plasma of mice; type: in vivo; conditions: for increase of cAMP level: mice, 60 minutes before test; for cAMP level: mouse blood plasma, one hour after a single injection
# [2] = test system: rats; assay: Acute toxicity, single intragastric administration in immature rats; type: in vivo; conditions: for Dead/total number: rats 30-35 days
# Experimental: Tables 2, 2.1 and 2.2 present the results of acute toxicity studies of the Compounds with active substance content in at least white outbred male mice (body weight 18-24 g) and white outbred rats 30-35 days of age, of both sexes with a single dose. Calculation of toxic doses was made using the Wilcoxon and Litchfield method. Observations were made over 24 hours and 14 days after a single dose.
# LD50 in rat pups after intragastric administration was not found. Intragastric administration to rat pups of doses of more than 1000 mg/kg is technically impossible due to the small volume of the stomach (Table 2.2).
# [3] = test system: IL-6; assay: Cytokine profile in supernatants of peripheral mononuclear cultures (ELISA), asthenoneurotic patients; type: in vivo, human; conditions: for IL-6: asthenoneurotic disorders, humans
# Experimental: (§1) The study of immunocompetent activity of Phenotropil included patients with neurasthenia and organic asthenic disorder (20-47 years) of both sexes (men 37%, women 63%). Control group included practically healthy people (20 people). The study groups were similar in age and sex ratio. Phenotropil was administered at a dose of 100 mg/day, one time in the morning for 30 days. Study of the immune and mental status (level of IL-1, IL-2, IL-3, IL-6, α-TNF, α-INF in supernatants of cultures of peripheral mononuclears from whole blood) was carried out before treatment and at days 7, 14, 21 after the therapy course (30 days) and after 3 months of therapy. Blood sampling for analysis was carried out at the same time of day in the control group and in the group of patients. Peripheral mononuclear cells were isolated from the whole blood; interleukin level was determined by ELISA kits (“Immunotech”, France).
# [4] = test system: IL-1; assay: as above; type: in vivo, human; conditions: for IL-1: asthenoneurotic disorders, humans
# Experimental: as §1
# [5] = test system: rats; assay: Hypoxia with hypercapnia in 7-day-old rats; type: in vivo
# [6] = test system: rats; assay: Alcohol dependence and abstinence, free choice of water and alcohol; type: in vivo
# From the text: The antitoxic, sobering and anticraving, activity, as well as the effect of Phenotropil in abstinence was studied on white outbred male rats (weighing 180-220 g) and male mice (weighing 18-24 g) in chronic alcoholism. […] Alcoholized rats after four months of alcoholism and treatment with Phenotropilom voluntarily give up intake of alcohol (anticraving activity) with free choice of water and alcohol (Table 11).
# [7] = test system: HSP70; assay: HSP70 expression in the myocardium (Western blot); type: in vivo, rats; conditions: for increase of NSP70 level in the myocardium vs Ns control: negative stress state; for increase of NSP70 content in the heart vs untreated control: no stress; for HSP 70 in myocardium: Wistar rats
# From the text: Determination of NSP70 (ng/mg of total protein) was studied in myocardial preparations by Western blot analysis; the results are presented in Table 14.1.
# [8] = test system: mycobacteria (MTB), strain H37Rv; assay: Mycobacteria (MTB) culture growth in vitro; type: cell-based
# Experimental: The presence of the proper anti-inflammatory effect in Phenotropil formed the basis for investigation of the effect of the drug on more complex pathological agents. The effect of different concentrations of Phenotropil on the mycobacteria (MTB) culture growth in vitro according to research standards (test culture—highly virulent laboratory strain H37Rv) was studied. A wide range of drug concentrations was prepared: 1 series—100, 50, 10 μg/ml, 2 series—from 10 to 0.31 μg/ml, and 3 series—from 2 to 0.031 μg/ml. To prepare the matrix solution, the sterile distilled water was used, and the Shkolnikova medium was used to prepare the said concentrations. To assess the growth and morphological properties of the MTB culture, suspended mycobacteria at appropriate concentrations of Phenotropil solution were inoculated on the Lowenstein-Jensen medium and Shkolnikova medium (4 tubes for each point). After 2 weeks, the presence of growth was determined visually in the Shkolnikova medium and smears from the sediment were prepared. The smears were fixed and stained according to Ziehl-Neelsen method. The number of mycobacteria in smears was counted and, based on the results obtained, the concentration of the drug at which the inhibition of the growth was observed was determined. The number of the MTB colonies and their morphological characteristics were evaluated on the Lowenstein-Jensen medium after four weeks from the time of inoculation. Registration of the results was also carried out four weeks after inoculation.
# [9] = After treatment (one month course)
# [10] = patients, 100 mg/day 30 days, after course
# [11] = patients, three months after the therapy
# [12] = abstinent rats, 7-month alcoholism, 200 mg/kg, day 3
# [13] = abstinent rats, 7-month alcoholism, 200 mg/kg, day 4
# [14] = after-effect of 45-day course 100 mg/kg, 1st day
# [15] = after-effect of 45-day course 100 mg/kg, 2nd day
# [16] = after-effect of 45-day course 100 mg/kg, 3rd day
# [17] = rats, 4-month alcoholism, 100 mg/kg, 45th day of administration
structure (smiles),measurement,setting,value
"NC(=O)CN1CC(c2ccccc2)CC1=O (racemic) [Compound 1, (RS)-2-(2-oxo-4-phenylpyrrolidine-1-yl)acetamide]",increase of cAMP level,[1]; single i.p. 10 mg/kg,21%
same,increase of cAMP level,[1]; single i.p. 50 mg/kg,65.5%
same,increase of cAMP level,[1]; single i.p. 100 mg/kg,96.3%
same,cAMP level,[1]; 10 mg/kg,4.56 ± 0.67 pikomol/50 μl plasma
same,cAMP level,[1]; 50 mg/kg,6.24 ± 0.81 pikomol/50 μl plasma
same,cAMP level,[1]; 100 mg/kg,7.40 ± 0.62 pikomol/50 μl plasma
same,Dead/total number,[2]; single intragastric 800 mg/kg,0/10
same,Dead/total number,[2]; single intragastric 1000 mg/kg,0/10
same,% of dead rat pups,[2]; single intragastric 800 mg/kg,0%
same,% of dead rat pups,[2]; single intragastric 1000 mg/kg,0%
same,IL-6,[3]; [9],3.55 ± 0.15
same,IL-6,[3]; At 3 months after treatment,3.80 ± 0.03
same,IL-6 level vs baseline values,[3]; [10],+11.3%
same,IL-6 level vs baseline,[3]; [11],+19.0%
same,IL-1,[4]; [9],1.65 ± 0.03
same,IL-1,[4]; At 3 months after treatment,1.63 ± 0.04
same,IL-1 level vs baseline values,[4]; [10],−3.5%
same,IL-1 level vs baseline,[4]; [11],−4.6%
same,Duration of life of animals,[5]; 50 mg/kg,83.3 ± 7.9 min
same,Duration of life of animals,[5]; 100 mg/kg,123.2 ± 2.9 min
same,Alcohol consumption,[6]; [12],4.8 ± 0.8 mL/day
same,Alcohol consumption vs control,[6]; [12],−58.6%
same,Alcohol consumption,[6]; [13],2.4 ± 0.7 mL/day
same,Alcohol consumption vs control,[6]; [13],−74.0%
same,Alcohol consumption,"[6]; abstinent rats, 7-month alcoholism, 200 mg/kg, day 14",0.0 ** ml/day
same,Alcohol consumption,[6]; [14],3.3 ± 1.1 mL/day
same,Water consumption,[6]; [14],26.7 ± 3.9 mL/day
same,Alcohol consumption,[6]; [15],0.0 ** ml/day
same,Water consumption,[6]; [15],20.2 ± 3.3 mL/day
same,Alcohol consumption,[6]; [16],0.0 ** ml/day
same,Water consumption,[6]; [16],21.2 ± 3.5 mL/day
same,Alcohol consumption,[6]; [17],10.5 ± 4.2 mL/day
same,Water consumption,[6]; [17],24.0 ± 5.9 mL/day
same,increase of NSP70 level in the myocardium vs Ns control,[7]; 25 mg/kg,38%
same,increase of NSP70 content in the heart vs untreated control,[7]; 25 mg/kg,65%
same,increase of NSP70 level in the myocardium vs Ns control,[7]; 50 mg/kg,41.4%
same,increase of NSP70 content in the heart vs untreated control,[7]; 50 mg/kg,82%
same,increase of NSP70 level in the myocardium vs Ns control,[7]; 100 mg/kg,62%
same,increase of NSP70 content in the heart vs untreated control,[7]; 100 mg/kg,73%
same,increase of NSP70 level in the myocardium vs Ns control,[7]; 300 mg/kg,89.7%
same,increase of NSP70 content in the heart vs untreated control,[7]; 300 mg/kg,273%
same,HSP 70 in myocardium,"[7]; 25 mg/kg i.p., normal conditions",0.18 ± 0.011 ng/mg total protein
same,HSP 70 in myocardium,"[7]; 50 mg/kg i.p., normal conditions",0.20 ± 0.014 ng/mg total protein
same,HSP 70 in myocardium,"[7]; 100 mg/kg i.p., normal conditions",0.19 ± 0.008 ng/mg total protein
same,HSP 70 in myocardium,"[7]; 300 mg/kg i.p., normal conditions",0.41 ± 0.016 ng/mg total protein
same,HSP 70 in myocardium,[7]; Ns + 25 mg/kg i.p.,0.40 ± 0.02 ng/mg total protein
same,HSP 70 in myocardium,[7]; Ns + 50 mg/kg i.p.,0.41 ± 0.03 ng/mg total protein
same,HSP 70 in myocardium,[7]; Ns + 100 mg/kg i.p.,0.47 ± 0.02 ng/mg total protein
same,HSP 70 in myocardium,[7]; Ns + 300 mg/kg i.p.,0.55 ± 0.03 ng/mg total protein
same,Mean number of MTB colonies,[8]; 0.031 ug/ml,contiguous
same,Mean number of MTB colonies,[8]; 0.063 ug/ml,contiguous
same,Mean number of MTB colonies,[8]; 0.125 ug/ml,107
same,Mean number of MTB colonies,[8]; 0.250 ug/ml,97
same,Mean number of MTB colonies,[8]; 0.310 ug/ml,83
same,Mean number of MTB colonies,[8]; 0.500 ug/ml,70
same,Mean number of MTB colonies,[8]; 0.630 ug/ml,65
same,Mean number of MTB colonies,[8]; 1.0 ug/ml,67
same,Mean number of MTB colonies,[8]; 1.25 ug/ml,74
same,Mean number of MTB colonies,[8]; 2.0 ug/ml,79
same,Mean number of MTB colonies,[8]; 5.0 ug/ml,90
same,Mean number of MTB colonies,[8]; 10.0 ug/ml,123
same,Mean number of MTB colonies,[8]; 50.0 ug/ml,contiguous
same,Mean number of MTB colonies,[8]; 100 ug/ml,contiguous
same,number of MTB colonies,[8]; concentrations from 0.25 to 5.0 μg/ml,Less than 100
